Measured values as given in patent publication US9650390B2, “Water-soluble taxane derivatives and uses thereof” (priority 2014, dated 2017).

How the values were obtained:
[1] = test system: human non-small cell lung cancer NCI-H446; test: Inhibitory activity of larotaxel and tesetaxel derivatives on subcutaneously xenografted tumor NCI-H446 in nude mice; settings: 12 mg/kg, D0 IV; for Weight change (%) D5: nude mice; for T/C (%) D20 / Tumor volume (mm^3) (D20) / Tumor inhibitory percent (%) D20 / Tumor volume (mm^3) (D0): NCI-H446 xenograft in nude mice; for Tumor inhibitory percent (%) D20: P = 0.000 vs control; for Tumor volume (mm^3) (D0): baseline at grouping (D0)
Text: Human […] NCI-H446 cells were subcutaneously inoculated into nude mice.

[2] = test system: human prostate cancer PC-3; test: Inhibitory activity of cabazitaxel derivatives on subcutaneously xenografted tumor PC-3 in nude mice; settings: D0 IV; for Weight change (%) D6: nude mice; for T/C (%) D20 / Tumor volume (mm^3) (D20) / Tumor inhibitory percent (%) D20 / Tumor volume (mm^3) (D0): PC-3 xenograft in nude mice; for Tumor inhibitory percent (%) D20: P = 0.000 vs control; for Tumor volume (mm^3) (D0): baseline at grouping (D0)
Text: Purpose: to evaluate and compare the inhibitory activity of the water soluble cabazitaxel derivatives and cabazitaxel on subcutaneously xenografted tumor of human prostate cancer PC-3 in nude mice.
Human prostate cancer PC-3 cells were subcutaneously inoculated into nude mice. After the tumor volume reached 100-150 mm^3, the animals were randomly divided into several groups, and administered with the water soluble cabazitaxel derivatives of the following formula and cabazitaxel, respectively once on the same day (D0). The tumor volume was measured 2-3 times per week, the animals were weighed and the data were recorded until day 20 (D20) after grouping.
The tumor volume (V) was calculated according to the equation: V=½×a×b^2, wherein a and b represent the length and the width, respectively.
T/C (%)=(T−T0)/(C−C0)×100, wherein T and C represent the tumor volume at the end of the experiment; and T0 and C0 represent the tumor volume at the beginning of the experiment.

[3] = In vitro dissociation in blood plasma of rat; assay type: in vitro ADME, SD rats; settings: fresh SD rat plasma, 37° C.; for Sampling time/Dissociation percent (%) 2 min: 2 min incubation; for Sampling time/Dissociation percent (%) 5 min: 5 min incubation; for Sampling time/Dissociation percent (%) 10 min: 10 min incubation
Experimental: The obtained water soluble taxane derivatives of the following formulae were formulated as 0.2 mg/ml aqueous solutions. […] After 2 min, 5 min and 10 min of incubation, 0.2 ml of solutions were respectively taken from each of the samples, and added to acetonitrile (0.4 ml) cooled to −20° C. for precipitation of protein.

[4] = In vitro dissociation in blood plasma of rabbit; assay type: in vitro ADME, New Zealand white rabbits; settings: fresh New Zealand white rabbit plasma, 37° C.
Experimental: The obtained water soluble taxane derivatives of the following formulae were formulated as 0.2 mg/ml aqueous solutions. […]

Structure (SMILES)	T/C (%) D20 [1] [%]	Tumor volume (mm^3) (D20) [1]	Tumor inhibitory percent (%) D20 [1] [%]	Tumor volume (mm^3) (D0) [1]	Weight change (%) D6 ([2]; 13 mg/kg) [%]	T/C (%) D20 ([2]; 13 mg/kg) [%]	Tumor volume (mm^3) (D20) ([2]; 13 mg/kg)	Tumor inhibitory percent (%) D20 ([2]; 13 mg/kg) [%]	Tumor volume (mm^3) (D0) ([2]; 13 mg/kg)	also measured
CC(=O)OC1C(=O)C23CC2CC2OCC2(OC(C)=O)C3C(OC(=O)c2ccccc2)C2(O)CC(OC(=O)C(OC(=O)C(CCN(C)C(C)C)C(F)(F)F)C(NC(=O)OC(C)(C)C)c3ccccc3)C(C)=C1C2(C)C.O=C(O)C=CC(=O)O (mixture of isomers) [Compound C41, 2′-O-[4-N-methyl-N-isopropylamino-2(R,S)-2-trifluoromethylbutyryl]larotaxel maleate]	−34	51.7 ± 11.9	67	109.8 ± 2.9	–	–	–	–	–	Weight change (%) D5 [1]: −10.5%
CC(=O)OC12COC1CCC1(C)C3OC(CN(C)C)OC3C3=C(C)C(OC(=O)C(OC(=O)C(CCN(C)C(C)C)C(F)(F)F)C(NC(=O)OC(C)(C)C)c4ncccc4F)CC(O)(C(OC(=O)c4ccccc4)C12)C3(C)C.O=C(O)CCC(=O)O (mixture of isomers) [Compound C45, 2′-O-[4-N-methyl-N-isopropylamino-2(R,S)-2-trifluoromethylbutyryl]tesetaxel succinate]	−34	53.4 ± 12.4	85	112.3 ± 3.1	–	–	–	–	–	Weight change (%) D5 [1]: −11.4%
CC(=O)OC12COC1CCC1(C)C3OC(CN(C)C)OC3C3=C(C)C(OC(=O)C(OC(=O)C(F)CC(C)N4CCCC4)C(NC(=O)OC(C)(C)C)c4ncccc4F)CC(O)(C(OC(=O)c4ccccc4)C12)C3(C)C.O=S(=O)(O)O (mixture of isomers) [Compound C46, 2′-O-[4-(pyrrolidin-1-yl)amino-2(R,S)-fluorovaleryl]tesetaxel sulfate]	−23	61.2 ± 14.2	58	111.7 ± 2.8	–	–	–	–	–	–
CO[C@H]1C(=O)[C@]2(C)[C@@H](OC)C[C@H]3OC[C@@]3(OC(C)=O)[C@H]2[C@H](OC(=O)c2ccccc2)[C@]2(O)C[C@H](OC(=O)[C@H](OC(=O)[C@H](F)CCN(C)C)[C@@H](NC(=O)OC(C)(C)C)c3ccccc3)C(C)=C1C2(C)C.CS(=O)(=O)O [Compound C7, 2′-O-[4-N,N-dimethylamino-2(R)-fluorobutyryl]cabazitaxel methanesulfonate]	–	–	–	–	−14.2	−67	31.5 ± 11.8	154	111.5 ± 2.2	Sampling time/Dissociation percent (%) 2 min [3]: 49.7%; Sampling time/Dissociation percent (%) 5 min [3]: 88.9%; Sampling time/Dissociation percent (%) 10 min [3]: 100%; Sampling time/Dissociation percent (%) 2 min [4]: 78.4%; Sampling time/Dissociation percent (%) 5 min [4]: 94.8%; Sampling time/Dissociation percent (%) 10 min [4]: 100%
CO[C@H]1C(=O)[C@]2(C)[C@@H](OC)C[C@H]3OC[C@@]3(OC(C)=O)[C@H]2[C@H](OC(=O)c2ccccc2)[C@]2(O)C[C@H](OC(=O)[C@H](OC(=O)[C@@H](F)CCN(C)C)[C@@H](NC(=O)OC(C)(C)C)c3ccccc3)C(C)=C1C2(C)C.CS(=O)(=O)O [Compound C8, 2′-O-[4-N,N-dimethylamino-2(S)-fluorobutyryl]cabazitaxel methanesulfonate]	–	–	–	–	−14.4	−66	32.1 ± 12.1	151	111.9 ± 2.0	Sampling time/Dissociation percent (%) 2 min [3]: 49.4%; Sampling time/Dissociation percent (%) 5 min [3]: 88.4%; Sampling time/Dissociation percent (%) 10 min [3]: 100%; Sampling time/Dissociation percent (%) 2 min [4]: 85.6%; Sampling time/Dissociation percent (%) 5 min [4]: 94.5%; Sampling time/Dissociation percent (%) 10 min [4]: 100%
CO[C@H]1C(=O)[C@]2(C)[C@@H](OC)C[C@H]3OC[C@@]3(OC(C)=O)[C@H]2[C@H](OC(=O)c2ccccc2)[C@]2(O)C[C@H](OC(=O)[C@H](OC(=O)C(F)CCN(C)C)[C@@H](NC(=O)OC(C)(C)C)c3ccccc3)C(C)=C1C2(C)C.CS(=O)(=O)O (stereo partly drawn) [Compound C9, 2′-O-[4-N,N-dimethylamino-2(R,S)-fluorobutyryl]cabazitaxel methanesulfonate]	–	–	–	–	−14.4	−66	32.5 ± 11.6	151	111.4 ± 2.3	Sampling time/Dissociation percent (%) 2 min [3]: 49.3%; Sampling time/Dissociation percent (%) 5 min [3]: 88.6%; Sampling time/Dissociation percent (%) 10 min [3]: 100%; Sampling time/Dissociation percent (%) 2 min [4]: 81.2%; Sampling time/Dissociation percent (%) 5 min [4]: 96.7%; Sampling time/Dissociation percent (%) 10 min [4]: 100%
CCN(C)CC[C@@H](F)C(=O)O[C@@H](C(=O)O[C@H]1C[C@@]2(O)[C@@H](OC(=O)c3ccccc3)[C@@H]3[C@]4(OC(C)=O)CO[C@@H]4C[C@H](OC)[C@@]3(C)C(=O)[C@H](OC)C(=C1C)C2(C)C)[C@@H](NC(=O)OC(C)(C)C)c1ccccc1.O=C(O)/C=C\C(=O)O [Compound C32, 2′-O-[4-N-methyl-N-ethylamino-2(R)-fluorobutyryl]cabazitaxel maleate]	–	–	–	–	−14.7	−56	35.8 ± 12.7	128	112.4 ± 3.0	–
CCN(CC)CC[C@@H](F)C(=O)O[C@@H](C(=O)O[C@H]1C[C@@]2(O)[C@@H](OC(=O)c3ccccc3)[C@@H]3[C@]4(OC(C)=O)CO[C@@H]4C[C@H](OC)[C@@]3(C)C(=O)[C@H](OC)C(=C1C)C2(C)C)[C@@H](NC(=O)OC(C)(C)C)c1ccccc1.CS(=O)(=O)O [Compound C33, 2′-O-[4-N,N-diethylamino-2(R)-fluorobutyryl]cabazitaxel methanesulfonate]	–	–	–	–	−15.1	−50	38.6 ± 13.4	114	112.0 ± 2.4	–
CO[C@H]1C(=O)[C@]2(C)[C@@H](OC)C[C@H]3OC[C@@]3(OC(C)=O)[C@H]2[C@H](OC(=O)c2ccccc2)[C@]2(O)C[C@H](OC(=O)[C@H](OC(=O)[C@H](F)CCN(C)C(C)C)[C@@H](NC(=O)OC(C)(C)C)c3ccccc3)C(C)=C1C2(C)C.Cl [Compound C34, 2′-O-[4-N-methyl-N-isopropylamino-2(R)-fluorobutyryl]cabazitaxel hydrochloride]	–	–	–	–	–	−45	42.8 ± 11.9	101	111.7 ± 3.2	–
CO[C@H]1C(=O)[C@]2(C)[C@@H](OC)C[C@H]3OC[C@@]3(OC(C)=O)[C@H]2[C@H](OC(=O)c2ccccc2)[C@]2(O)C[C@H](OC(=O)[C@H](OC(=O)[C@@H](CCN(C)C)C(F)(F)F)[C@@H](NC(=O)OC(C)(C)C)c3ccccc3)C(C)=C1C2(C)C.CS(=O)(=O)O [Compound C35, 2′-O-[4-N,N-dimethylamino-2(R)-2-trifluoromethylbutyryl]cabazitaxel methanesulfonate]	–	–	–	–	−15.8	−46	42.3 ± 12.6	105	110.2 ± 4.6	–
CO[C@H]1C(=O)[C@]2(C)[C@@H](OC)C[C@H]3OC[C@@]3(OC(C)=O)[C@H]2[C@H](OC(=O)c2ccccc2)[C@]2(O)C[C@H](OC(=O)[C@H](OC(=O)[C@@H](CCN(C)C)C(F)F)[C@@H](NC(=O)OC(C)(C)C)c3ccccc3)C(C)=C1C2(C)C.Cc1ccc(S(=O)(=O)O)cc1 [Compound C36, 2′-O-[4-N,N-dimethylamino-2(R)-2-difluoromethylbutyryl]cabazitaxel p-toluene sulfonate]	–	–	–	–	–	−37	–	85	–	–
CC(=O)O[C@H]1C(=O)[C@]23C[C@H]2C[C@H]2OC[C@@]2(OC(C)=O)[C@H]3[C@H](OC(=O)c2ccccc2)[C@]2(O)C[C@H](OC(=O)[C@H](OC(=O)[C@H](F)CCN(C)C)[C@@H](NC(=O)OC(C)(C)C)c3ccccc3)C(C)=C1C2(C)C.Cl [Compound C39, 2′-O-[4-N,N-dimethylamino-2(R)-fluorobutyryl]larotaxel hydrochloride]	−62	34.9 ± 13.3	148	111.5 ± 2.2	–	–	–	–	–	Weight change (%) D5 [1]: −8.5%
CO[C@H]1C(=O)[C@]2(C)[C@@H](OC)C[C@H]3OC[C@@]3(OC(C)=O)[C@H]2[C@H](OC(=O)c2ccccc2)[C@]2(O)C[C@H](OC(=O)[C@H](O)[C@@H](NC(=O)OC(C)(C)C)c3ccccc3)C(C)=C1C2(C)C [cabazitaxel, reference compound]	–	–	–	–	–	–	–	–	–	Weight change (%) D6 ([2]; 7 mg/kg): −13.8%; T/C (%) D20 ([2]; 7 mg/kg): −27%; Tumor volume (mm^3) (D20) ([2]; 7 mg/kg): 79.9 ± 24.8 mm^3; Tumor inhibitory percent (%) D20 ([2]; 7 mg/kg): 127%; Tumor volume (mm^3) (D0) ([2]; 7 mg/kg): 111.7 ± 1.8 mm^3
